Experimental findings from patent publication US20250188404A1, “CULTURE CAPSULE AND METHOD FOR RES[…] IN VIABLE BUT NON-CULTURABLE (VBNC) STATE” (Innovation Center of Yangtze River Delta, ZJU, priority 2023, published 2025) are described below.

This assay relates to Salmonella ATCC14028 in a special dormant state. Nature of the assay: Resuscitation ("awakening") of VBNC Salmonella by nutrient added alone, pour-plate colony growth. Type of assay: cell-based. The conditions noted are these: nutrient not encapsulated, more than 3 g egg yolk lecithin or more than 0.22 g cholesterol per 20 mL bacterial solution, static incubation 1 d to 7 d. The procedure:
In the examples of the present disclosure, induced preparation of Salmonella ATCC14028 in a special dormant state: single colonies of Salmonella ATCC14028 are inoculated in a liquid medium and cultivated at 37° C. and 180 rpm to a late logarithmic stage; a resulting bacterial solution is centrifuged at 6,000 rpm for 10 min, and a resulting supernatant is discarded; a resulting precipitate is washed twice with phosphate buffered saline (PBS) and then re-dissolved with PBS for later use, and a resulting bacterial solution is serially diluted to a concentration of 1*10^8 CFU/mL; 18 mL of PBS is added to a 50 mL centrifuge tube, the centrifuge tube is heated in a 60±2° C. water bath, and after the temperature in the centrifuge tube reaches 60±2° C., 2 mL of a 1*10^8 CFU/mL bacterial solution is added to the centrifuge tube; a diluted bacterial solution is magnetically stirred and heated for 20 min, and then immediately taken out and placed in ice for later use; a cooled bacterial solution is centrifuged at 7,000 rpm for 10 min, a resulting supernatant is discarded, and PBS is added to 20 mL for re-dissolution; and the treated bacterial solution is subjected to staining with a Live/Dead BacLight kit, and then the number of viable bacteria in the treated bacterial solution is detected by flow cytometry. […]

Consider `CC(C)CCC[C@@H](C)[C@H]1CC[C@H]2[C@@H]3CC=C4C[C@@H](O)CC[C@]4(C)[C@H]3CC[C@]12C` [cholesterol], for which the “"awakening" of bacteria in a special dormant state (growth of colonies)” value is “can “awaken” bacteria in a special dormant state”.
